Patent publication US20050107346A1, “N-acetylcolchinol-o-phosphate combination therapies with vascular damaging activity” (ASTRAZENECA AB, priority 2000, published 2005)

Legend:
[1] = tested on: murine adenocarcinoma CaNT tumour; assay: CaNT tumour model growth delay, ZD6126 in combination with cisplatin; format: in vivo, mice
Method: ZD6126 alone was dosed on days 0, 2 and 4 using a split dose regimen of 100 mg/kg ZD6126, followed by a 2 hour interval, followed by a further 100 mg/kg ZD6126; doses were given intraperitoneally (i.p.).
Cisplatin (David Bull Laboratories) alone was dosed at 5 mg/kg i.p on day 0.
The combination treatment consisted of: • Day 0: ZD6126 100 mg/kg i.p., followed by a 2 hour interval, followed by a further 100 mg/kg ZD6126 i.p; and cisplatin 5 mg/kg given 10 minutes before first ZD6126 dose. • Days 2 and 4: ZD6126 100 mg/kg i.p., followed by a 2 hour interval, followed by a further 100 mg/kg ZD6126 i.p..
ZD6126 alone was dosed on days 0, 4, 7 and 11 using a split dose regimen of ZD6126 100 mg/kg i.p., followed by a 2 hour interval, followed by a further 100 mg/kg ZD6126 i.p.. Cisplatin alone was dosed at 5 mg/kg i.p on day 0 and day 7.
The combination treatment consisted of: • Days 0 and 7: ZD6126 100 mg/kg i.p., followed by a 2 hour interval, followed by a further 100 mg/kg ZD6126 i.p.; cisplatin given 10 minutes before first ZD6126 dose. • Days 3, 7 and 10: ZD6126 100 mg/kg i.p., followed by a 2 hour interval, followed by a further 100 mg/kg ZD6126 i.p..

[2] = tested on: human Calu 6 tumour cells; assay: Calu 6 tumour model growth delay, ZD6126 in combination with cisplatin; format: in vivo; conditions: athymic nude mice; ZD6126 100 mg/kg i.p. x5 days; cisplatin 4 mg/kg i.p. day 0
Method: In a second tumour model, Calu 6, the advantage of combining ZD6126 and cisplatin (cis-Platinum(II)Diammine Dichloride—Sigma P-4394) was confirmed. Athymic nude mice were implanted subcutaneously with 1×10^6 human Calu 6 tumour cells (obtained from American Type Culture Collection, 10801 University Boulevard, Manassas, Va. 20110-2209 Cat. no. Hm-56) and tumours allowed to grow until they were approximately 9 mm in diameter. Groups of 10 tumour bearing mice were then treated as follows:
ZD6126 alone was dosed 100 mg/kg i.p. on days 0, 1, 2, 3, 4.
Cisplatin alone was dosed 4 mg/kg i.p. on day 0.
In the combination arm cisplatin 4 mg/kg i.p. was dosed on day 0, and ZD6126 100 mg/kg i.p. was dosed on days 1, 2, 3, 4 and 5.
The combination of cisplatin and ZD6126 gave a growth delay (time to reach 2× starting volume) of 20.5 days compared to control tumours.

[3] = tested on: murine KHT sarcoma; assay: KHT sarcoma tumour cell survival (excision and colony formation), cisplatin plus ZD6126; format: in vivo; conditions: 10 mg/kg cisplatin i.p. alone; assessed 24 hours later
Method: In the murine KHT sarcoma model (Lingyun Li, B. S. et al, Int. J. Radiation Oncology Biol. Phys 42, 899-903, 1998) tumours were treated with either 10 mg/kg cisplatin i.p. alone or 10 mg/kg cisplatin plus ZD6126 (10-100 mg/kg i.p.), cisplatin given 1 hour prior to ZD6126. The effects of the treatments on tumour cell survival was assessed 24 hours later by excising the tumour, disaggregating the cells and determining the number of colonies formed after 10-14 days. Surviving fraction compared to untreated cells was then determined.

[4] = tested on: murine KHT sarcoma; assay: KHT sarcoma tumour cell survival (excision and colony formation), ZD6126 and radiation; format: in vivo, mice
Method: The murine KHT sarcoma grown in C3H mice was also used to confirm the advantage of combining ZD6126 and radiation. Tumours were treated with either radiation alone (0, 5, 10, 15 or 20 Gy single dose), ZD6126 100 mg/kg i.p., or radiation followed 1 hour later by ZD6126 100 mg/kg i.p.. The effects of either radiation alone, ZD6126 alone or the combination on tumour cell survival was assessed 24 hours later by excising the tumour, disaggregating the cells and determining the number of colonies formed after 10-14 days. Surviving fraction compared to untreated cells was then determined.

[5] = tested on: CaNT tumours; assay: CaNT tumour model growth delay, ZD6126 in combination with ionising radiation; format: in vivo, mice; conditions: ZD6126 125 mg/kg i.p. days 0-4 and 7-11; radiation 15 Gy days 0 and 7
Method: The activity of combining ZD6126 and radiation in the CaNT tumour model was also investigated. Tumours were treated with either radiation alone (15 Gy days 0 and 7), ZD6126 alone (single dose of ZD6126 125 mg/kg i.p. on days 0, 1, 2, 3, 4, 7, 8, 9, 10 and 11), or a combination of both (15 Gy days 0 and 7, ZD6126 125 mg/kg i.p. on days 0, 1, 2, 3, 4, 7, 8, 9, 10 and 11). On the days radiation and ZD6126 were administered together,radiation treatment was given 3 hours after ZD6126 administration. Radiation was administered by placing the mice in lead boxes so that only the tumour bearing portion of the rear dorsum was exposed to a horizontal X-ray beam (Sheldon and Hill, B J C, 35, 795-808, […]). Mice were irradiated with 240 kV X-rays at a dose rate of 3.6 Gy/min.

[6] = tested on: murine adenocarcinoma CaNT tumour; assay: In vivo cell survival excision assay, ZD6126 single versus divided doses in CaNT tumours; set-up: species or system mice
Method: In vivo cell survival was measured using an excision assay (D J Chaplin et al., Anticancer Research 19: 189-196 (1999)).
For each of the assays a) and b) below, the surviving fraction of tumour cells was determined as follows:
Tumours were excised at about 18 hours after treatment, weighed and disaggregated for 1 hour at 37 degrees Celsius in an enzyme cocktail containing 1 mg/ml pronase, 0.5 mg/ml DNAase and 0.5 mg/ml collagenase. Haemocytometer counts of trypan blue-excluding cells were made and viable cells seeded in appropriate concentrations to yield about 50 colonies/dish after in vitro incubation. Heavily irradiated feeder cells (V79 cells) were used at a concentration of 25,000/ml to support the growth of the surviving CaNT cells. The data were calculated as surviving fraction per gram of tumour.
ZD6126 was administered as a single dose of […] intra-peritoneally (i.p.) in saline with a small amount of 1% sodium carbonate added to aid the dissolution of ZD6126.
ZD6126 was dosed using a split dose regimen of 100 mg/kg ZD6126, followed by a time interval, followed by a further 100 mg/kg ZD6126; doses were given intraperitoneally (i.p.) in saline with a small amount of 1% sodium carbonate added to aid the dissolution of ZD6126.
The time intervals used were 1, 2, 3, 4 and 6 hours.
This improved effect varied with the proportion of total dose given in the first and second doses.
ZD6126 was dosed using split dose regimens of: • i) 25 mg/kg ZD6126, followed by a 2 hour interval, followed by a further 175 mg/kg ZD6126; • ii) 50 mg/kg ZD6126, followed by a 2 hour interval, followed by a further 150 mg/kg ZD6126; • iii) 100 mg/kg ZD6126, followed by a 2 hour interval, followed by a further 100 mg/kg ZD6126; • iv) 150 mg/kg ZD6126, followed by a 2 hour interval, followed by a further 50 mg/kg ZD6126; • v) 175 mg/kg ZD6126, followed by a 2 hour interval, followed by a further 25 mg/kg ZD6126;
All doses were given intraperitoneally (i.p.) in saline with a small amount of 1% sodium carbonate added to aid the dissolution of ZD6126.

[7] = tested on: FaDu cells (human squamous cell carcinoma of the pharynx); assay: FaDu tumour model growth delay, ZD6126 in combination with paclitaxel; format: in vivo; conditions: SCID mice; single dose ZD6126 125 mg/kg i.p.; paclitaxel 15 mg/kg i.p.
Method: In a third tumour model 5×10^5FaDu cells (human squamous cell carcinoma of the pharynx) were implanted onto the rear dorsum of 12-16 week old, female SCID mice. When the tumours had become established they were excised and cut into small tumour fragments approximately 1 mm^3. These fragments were implanted subcutaneously into further SCID mice. Once these tumours had become established (approximately 6 mm diameter) mice were treated with either a single dose of ZD6126 (125 mg/kg i.p.) alone, a single dose of paclitaxel (Taxol-BMS) (15 or 30 mg/kg i.p.) alone or the combination of a single dose of paclitaxel (15 mg/kg i.p.) and ZD6126 (125 mg/kg i.p.), paclitaxel being given 15 minutes before ZD6126.

[8] = study 1, ZD6126 2x100 mg/kg i.p. 2 h apart days 0, 2, 4, cisplatin 5 mg/kg i.p. day 0
[9] = study 2, ZD6126 2x100 mg/kg i.p. 2 h apart days 0, 4, 7, 11, cisplatin 5 mg/kg i.p. days 0 and 7

Row | SMILES | Mean growth delay (vs control) - days [1, 8] [days] | Mean growth delay (vs control) - days [1, 9] [days] | growth delay (time to reach 2× starting volume) compared to control tumours [2] [days] | cell killing [3] | tumour cells killed ([4]; ZD6126 alone 100 mg/kg) | enhancement in cell killing ([4]; ZD6126 combined with radiation doses of 5, 10 or 15 Gy) | Plus ZD6126 % cell survival ([4]; radiation dose 0 Gy, ZD6126 100 mg/kg i.p., C3H mice) [%] | ZD6126 Enhancement ([4]; radiation dose 0 Gy, ZD6126 100 mg/kg i.p., over controls) [fold] | Plus ZD6126 % cell survival ([4]; radiation dose 5 Gy, ZD6126 100 mg/kg i.p. 1 hour later) [%] | ZD6126 Enhancement ([4]; radiation dose 5 Gy, ZD6126 100 mg/kg i.p.) [fold] | Plus ZD6126 % cell survival ([4]; radiation dose 10 Gy, ZD6126 100 mg/kg i.p. 1 hour later) [%] | ZD6126 Enhancement ([4]; radiation dose 10 Gy, ZD6126 100 mg/kg i.p.) [fold] | Plus ZD6126 % cell survival ([4]; radiation dose 15 Gy, ZD6126 100 mg/kg i.p. 1 hour later) [%] | ZD6126 Enhancement ([4]; radiation dose 15 Gy, ZD6126 100 mg/kg i.p.) [fold] | Mean growth delay (vs control) - days [5] [days] | split dose proportion giving the best anti-tumour effect ([6]; 100 mg/kg, 2 hour interval, further 100 mg/kg i.p.) | anti-tumour effect, as measured by surviving fraction of tumour cells, divided doses versus single dose ([6]; divided doses 2 hours apart (25+175, 50+150, 100+100, 150+50, 175+25 mg/kg i.p.) vs single 200 mg/kg) | surviving fraction per gram of tumour, divided doses versus single dose ([6]; two doses of 100 mg/kg i.p. separated by 2, 3 or 4 hours vs a single 200 mg/kg dose, about 18 hours after treatment) | Mean growth delay (vs control) - days [7] [days]
1 | N.N.[Cl-].[Cl-].[Pt+2] [Cisplatin, cis-Platinum(II)Diammine Dichloride, reference compound] | 2.1 | 7.7 | 6.0 | approximately 98% | – | – | – | – | – | – | – | – | – | – | – | – | – | – | –
2 | COc1cc2c(c(OC)c1OC)-c1ccc(OP(=O)(O)O)cc1[C@@H](NC(C)=O)CC2 [ZD6126, (5S)-5-(acetylamino)-9,10,11-trimethoxy-6,7-dihydro-5H-dibenzo[a,c]cyclohepten-3-yl dihydrogen phosphate] | 6.5 | 9.9 | 10.1 | – | 97-98% | 100-200 fold | 2.5 | 40 | 0.16 | 125 | 0.015 | 100 | 0.0016 | 219 | 9.1 | best effect was seen with equal split doses | greater with divided doses of ZD6126 than with a single dose | significantly more effective | 4.3
3 | CC(=O)O[C@H]1C(=O)[C@@]2(C)[C@H]([C@H](OC(=O)c3ccccc3)[C@]3(O)C[C@H](OC(=O)[C@H](O)[C@@H](NC(=O)c4ccccc4)c4ccccc4)C(C)=C1C3(C)C)[C@]1(OC(C)=O)CO[C@@H]1C[C@@H]2O [Paclitaxel, paclitaxel, reference compound] | – | – | – | – | – | – | – | – | – | – | – | – | – | – | – | – | – | – | 5.1
